Data on 1 compound can be found in patent US7166472B2, “Method for the identification of agents that inhibit or promote cataracts and uses thereof” (The General Hospital Corporation, priority 2000, dated 2007).

Experiment [1] has as its target bovine serum albumin (BSA) (Bos taurus, UniProt P02769). The conditions noted are these: co-incubation with Cu(II), 5 days 37° C. dark.
Experiment [2] has as its target T1, recombinant human αB-crystallin (Homo sapiens, UniProt P02511).
T1 construct: gift of Dr. J. Liang, Brigham and Women's Hospital
T1 sequence (P02511 1-175): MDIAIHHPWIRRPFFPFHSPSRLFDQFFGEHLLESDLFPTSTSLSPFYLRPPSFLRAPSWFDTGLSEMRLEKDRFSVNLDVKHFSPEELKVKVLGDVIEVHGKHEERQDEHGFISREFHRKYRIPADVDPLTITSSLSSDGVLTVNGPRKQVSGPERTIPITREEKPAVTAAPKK
Put plainly: Recombinant human αB-crystallin cross-linking (SDS-PAGE, silver stain). It is filed as biochemical. The conditions noted are these: 5 days 37° C. dark. As to the method:
Various solutions containing 3-HK (10 μM) or other kynurenine pathway metabolites (10 μM), Cu(II)-glycine (10 μM), Fe(III)-citrate (10 μM), and triethylenetetramine (TETA, 200 μM), were added in combinations as indicated. […] After incubation, aliquots of the total lens protein solutions were mixed with sample buffer containing 4% SDS and 5% β-mercaptoethanol, heated to 95° C. for 5 minutes, and loaded at 1 μg/lane on a 10–20% Tricine gel (Novex, San Diego, Calif.). […] For the experiments with recombinant αB-crystallin, aliquots of the protein solutions were mixed with sample running buffer containing NuPAGE sample buffer (Novex, San Diego, Calif.) and 10% β-mercaptoethanol, heated to 95° C. for 5 minutes, spun briefly, then loaded on a NuPAGE 4–12% Bis-Tris polyacrylamide gel at 375 ng/lane and electrophoresed with denaturing 3-(N-morpholino)propanesulfonic acid (MOPS)-SDS running buffer according to the manufacturer's recommendations.
To exclude the effects of other lens proteins on the observed findings in FIG. 5, these interactions with purified recombinant human αB-crystallin were examined.

Experiment [3] can be described thus: Hydrogen peroxide assay (DCF fluorometric). It is filed as biochemical. The conditions noted are these: for hydrogen peroxide production: Cu(II) present, dark.

bovine serum albumin (BSA), sequence (P02769 25-607): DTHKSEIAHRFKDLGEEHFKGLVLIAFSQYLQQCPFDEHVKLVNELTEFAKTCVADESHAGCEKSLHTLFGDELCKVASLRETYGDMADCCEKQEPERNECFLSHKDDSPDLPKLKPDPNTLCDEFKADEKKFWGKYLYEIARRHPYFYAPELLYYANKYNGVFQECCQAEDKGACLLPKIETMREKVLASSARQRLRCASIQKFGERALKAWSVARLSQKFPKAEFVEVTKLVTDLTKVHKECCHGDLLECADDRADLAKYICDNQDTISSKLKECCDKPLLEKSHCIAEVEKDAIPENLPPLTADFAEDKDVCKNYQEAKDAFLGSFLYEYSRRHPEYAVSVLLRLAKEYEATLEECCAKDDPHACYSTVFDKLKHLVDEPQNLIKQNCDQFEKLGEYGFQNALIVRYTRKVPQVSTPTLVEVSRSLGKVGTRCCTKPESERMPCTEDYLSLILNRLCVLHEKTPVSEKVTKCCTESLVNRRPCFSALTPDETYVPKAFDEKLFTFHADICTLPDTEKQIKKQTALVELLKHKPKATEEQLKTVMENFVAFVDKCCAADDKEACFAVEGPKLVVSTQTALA

For the compound `Nc1c(O)cccc1C(=O)CC(N)C(=O)O` (centres unmarked) [3-HK, 3-hydroxykynurenine], in experiment [1], the “BSA protein depletion with Cu(II)” value is given as “the monomer was depleted without emergence of apparent detectable cross-linked species”. Further, in experiment [2] (metabolite 10 μM alone), the αB-crystallin cross-linking entry was “apparent dimeric and higher order oligomers were observed”. Further, the “αB-crystallin cross-linking with Cu(II)” value in experiment [2] (metabolite 10 μM and Cu(II) 10 μM) is “monomeric and apparent dimeric αB-crystallin species were depleted and a prominent high molecular weight smear was observed”. The “hydrogen peroxide generated relative to available Cu(II)” value in experiment [3] is on record as “approximately 3 fold”. In experiment [3] (ambient gas conditions, CHELEX-treated PBS, FIG. 4C), the hydrogen peroxide generated entry was “approx. 3 μM”. The hydrogen peroxide production in experiment [3] (ambient oxygen tension) amounted to 1.49 μM H2O2; in experiment [3] (high oxygen tension) it was 1.84 μM H2O2; in experiment [3] (low oxygen tension (continuous argon sparging)) it was 0.35 μM H2O2.
